What was measured:
Assay in all cases: Kinase selectivity, DiscoverX scanMAX Kinase assay panel (% control)
Assay type in all cases: binding
[1] = target: T1, kinases of the scanMAX Kinase assay panel (Homo sapiens, UniProt P04049); conditions: RAF1; 1 uM
T1 construct: purchased DiscoverX Co. (contract measurement) scanMAX Kinase assay panel
How it was run: (§1)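 Single-point screen, 1 uM cpd in DMSO. % ctrl = (cpd − pos ctrl)/(neg ctrl − pos ctrl)×100; pos ctrl = 0%, DMSO neg ctrl = 100%. Hit cutoff <35%.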

[2] = target: T2, kinases of the scanMAX Kinase assay panel (Homo sapiens, UniProt Q9BZL6); conditions: PRKD2; 1 uM
T2 construct: purchased DiscoverX Co. (contract measurement) scanMAX Kinase assay panel
T2 sequence (Q9BZL6 1-878): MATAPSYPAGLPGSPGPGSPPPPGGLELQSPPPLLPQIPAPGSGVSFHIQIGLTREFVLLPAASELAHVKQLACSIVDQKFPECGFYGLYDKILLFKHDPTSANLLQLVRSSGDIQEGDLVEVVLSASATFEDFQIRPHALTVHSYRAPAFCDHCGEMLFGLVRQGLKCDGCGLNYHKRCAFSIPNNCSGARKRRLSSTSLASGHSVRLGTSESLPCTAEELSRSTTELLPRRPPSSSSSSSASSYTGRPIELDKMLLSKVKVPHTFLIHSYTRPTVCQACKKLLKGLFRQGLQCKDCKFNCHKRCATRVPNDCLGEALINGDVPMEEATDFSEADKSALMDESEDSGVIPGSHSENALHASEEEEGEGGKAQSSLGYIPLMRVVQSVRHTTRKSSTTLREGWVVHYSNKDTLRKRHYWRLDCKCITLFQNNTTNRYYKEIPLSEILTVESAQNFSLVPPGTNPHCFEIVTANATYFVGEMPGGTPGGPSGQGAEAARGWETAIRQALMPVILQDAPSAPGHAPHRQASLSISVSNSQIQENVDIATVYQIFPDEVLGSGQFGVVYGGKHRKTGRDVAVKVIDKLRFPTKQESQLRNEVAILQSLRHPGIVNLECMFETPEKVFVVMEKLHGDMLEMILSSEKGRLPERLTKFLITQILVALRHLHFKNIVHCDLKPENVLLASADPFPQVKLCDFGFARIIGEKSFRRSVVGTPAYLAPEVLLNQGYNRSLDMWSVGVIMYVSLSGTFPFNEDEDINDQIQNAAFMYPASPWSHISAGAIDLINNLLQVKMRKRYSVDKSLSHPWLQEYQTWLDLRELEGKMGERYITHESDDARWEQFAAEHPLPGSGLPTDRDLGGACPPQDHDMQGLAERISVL
How it was run: as §1

[3] = target: T3, kinases of the scanMAX Kinase assay panel (Homo sapiens, UniProt P35626); conditions: GRK3; 1 uM
T3 construct: purchased DiscoverX Co. (contract measurement) scanMAX Kinase assay panel
T3 sequence (P35626 1-688): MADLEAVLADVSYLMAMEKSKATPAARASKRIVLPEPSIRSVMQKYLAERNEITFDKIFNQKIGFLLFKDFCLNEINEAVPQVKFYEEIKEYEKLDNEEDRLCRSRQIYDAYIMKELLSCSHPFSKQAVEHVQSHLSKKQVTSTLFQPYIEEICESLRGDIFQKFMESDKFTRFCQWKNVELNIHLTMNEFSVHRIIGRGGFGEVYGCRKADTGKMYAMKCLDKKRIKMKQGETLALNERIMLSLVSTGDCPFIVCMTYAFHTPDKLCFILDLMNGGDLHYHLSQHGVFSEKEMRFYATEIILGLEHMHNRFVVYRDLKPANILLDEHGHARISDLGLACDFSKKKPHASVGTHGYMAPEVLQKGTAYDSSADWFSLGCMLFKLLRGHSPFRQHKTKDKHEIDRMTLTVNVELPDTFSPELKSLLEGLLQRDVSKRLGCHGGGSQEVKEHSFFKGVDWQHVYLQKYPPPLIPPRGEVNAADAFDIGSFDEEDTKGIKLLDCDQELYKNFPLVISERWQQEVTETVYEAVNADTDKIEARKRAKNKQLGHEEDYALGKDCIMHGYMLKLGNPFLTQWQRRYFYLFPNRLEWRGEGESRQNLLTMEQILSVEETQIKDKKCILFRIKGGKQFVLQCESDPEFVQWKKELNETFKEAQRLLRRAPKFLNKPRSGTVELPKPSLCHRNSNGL
How it was run: as §1

[4] = target: T4, kinases of the scanMAX Kinase assay panel (Homo sapiens, UniProt O14965); conditions: AURKA; 1 uM
T4 construct: purchased DiscoverX Co. (contract measurement) scanMAX Kinase assay panel
T4 sequence (O14965 1-403): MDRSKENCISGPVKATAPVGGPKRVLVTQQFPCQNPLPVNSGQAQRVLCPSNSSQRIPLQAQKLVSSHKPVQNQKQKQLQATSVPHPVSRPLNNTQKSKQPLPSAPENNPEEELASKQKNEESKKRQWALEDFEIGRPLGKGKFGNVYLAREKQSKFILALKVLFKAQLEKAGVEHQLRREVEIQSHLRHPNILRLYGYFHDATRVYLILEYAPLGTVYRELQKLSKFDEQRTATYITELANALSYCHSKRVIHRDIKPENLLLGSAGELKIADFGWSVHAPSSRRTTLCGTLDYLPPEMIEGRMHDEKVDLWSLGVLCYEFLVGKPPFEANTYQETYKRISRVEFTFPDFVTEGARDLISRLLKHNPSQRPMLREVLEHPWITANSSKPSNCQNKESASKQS
How it was run: as §1

T1 sequence (P04049 whole entry): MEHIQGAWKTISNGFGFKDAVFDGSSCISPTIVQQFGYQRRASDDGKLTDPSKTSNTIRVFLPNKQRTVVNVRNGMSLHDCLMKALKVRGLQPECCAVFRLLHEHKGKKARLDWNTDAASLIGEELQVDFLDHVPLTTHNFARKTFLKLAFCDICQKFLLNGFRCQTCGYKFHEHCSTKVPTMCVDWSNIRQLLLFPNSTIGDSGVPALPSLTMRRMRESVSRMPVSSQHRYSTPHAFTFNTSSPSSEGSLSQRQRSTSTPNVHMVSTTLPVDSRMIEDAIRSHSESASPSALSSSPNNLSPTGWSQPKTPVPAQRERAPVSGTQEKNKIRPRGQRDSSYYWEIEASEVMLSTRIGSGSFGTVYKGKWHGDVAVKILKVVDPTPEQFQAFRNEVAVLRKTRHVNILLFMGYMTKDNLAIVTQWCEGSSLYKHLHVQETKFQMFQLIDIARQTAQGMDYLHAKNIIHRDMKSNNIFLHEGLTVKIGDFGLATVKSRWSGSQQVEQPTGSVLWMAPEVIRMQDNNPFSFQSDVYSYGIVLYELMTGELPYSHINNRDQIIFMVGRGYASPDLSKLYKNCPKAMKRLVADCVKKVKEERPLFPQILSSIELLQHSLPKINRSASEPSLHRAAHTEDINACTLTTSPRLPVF

Compound | remaining binding at 1 µM [1] [%] | remaining binding at 1 µM [2] [%] | remaining binding at 1 µM [3] [%] | remaining binding at 1 µM [4] [%]
CCNc1nc(Nc2ccc(C(=O)N3CCC(N4CCOCC4)CC3)cc2OC)nc2[nH]cc(C(F)(F)F)c12 [Example 104, (4-((4-(ethylamino)-5-(trifluoromethyl)-7H-pyrrolo[2,3-d]pyrimidine-2-yl)amino)-3-methoxyphenyl)(4-morpholinopiperidine-1-yl)methanone] | 100 | 16 | 97 | 87
CNc1nc(Nc2ccc(C(=O)N3CCOCC3)cc2OC)nc2[nH]cc(C#N)c12 [Example 1, 2-((2-methoxy-4-(morpholine-4-carbonyl)phenyl)amino)-4-(methylamino)-7H-pyrrolo[2,3-d]pyrimidine-5-carbonitrile] | 95 | 28 | 99 | 99
CC1(Nc2nc(Nc3cnn([C@H]4CCN(C5COC5)C[C@@H]4F)c3Cl)nc3[nH]cc(C#N)c23)CC1 [Example 52, 2-((5-chloro-1-((3S,4S)-3-fluoro-1-(oxetane-3-yl)piperidine-4-yl)-1H-pyrazole-4-yl)amino)((1-methylcyclopropyl)amino)-7H-pyrrolo[2,3-d]pyrimidine-5-carbonitrile] | 100 | 9.1 | 53 | 0.85
